# Patent US10981917B2, “Heterocyclic compound, its preparation method, and pharmaceutical composition comprising the same” (Daewoong Pharmaceutical Co., Ltd., priority 2017, dated 2021)
# Biological target: PRS (prolyl-tRNA synthetase) protein, PRS portion of EPRS (Homo sapiens (Human), UniProt P07814)
# Test: PRS enzyme activity inhibition experiment ([3H]proline, liquid scintillation)
# Assay type: biochemical
# Conditions: purified PRS protein, 37° C. for 5 to 10 minutes
# Summary of the method: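 Values are % inhibition or IC50 ranges (A ≤100 nM, B 100–500 nM, C ≥500 nM) from [3H]proline incorporation measured by liquid scintillation. PRS portion of human EPRS, reacted 5–10 min at 37 °C in pH 7.4 phosphate buffer containing 5 mM ATP and tRNA, compound at 1 μM.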
# PRS (prolyl-tRNA synthetase) protein, PRS portion of EPRS, sequence (P07814 1007-1512): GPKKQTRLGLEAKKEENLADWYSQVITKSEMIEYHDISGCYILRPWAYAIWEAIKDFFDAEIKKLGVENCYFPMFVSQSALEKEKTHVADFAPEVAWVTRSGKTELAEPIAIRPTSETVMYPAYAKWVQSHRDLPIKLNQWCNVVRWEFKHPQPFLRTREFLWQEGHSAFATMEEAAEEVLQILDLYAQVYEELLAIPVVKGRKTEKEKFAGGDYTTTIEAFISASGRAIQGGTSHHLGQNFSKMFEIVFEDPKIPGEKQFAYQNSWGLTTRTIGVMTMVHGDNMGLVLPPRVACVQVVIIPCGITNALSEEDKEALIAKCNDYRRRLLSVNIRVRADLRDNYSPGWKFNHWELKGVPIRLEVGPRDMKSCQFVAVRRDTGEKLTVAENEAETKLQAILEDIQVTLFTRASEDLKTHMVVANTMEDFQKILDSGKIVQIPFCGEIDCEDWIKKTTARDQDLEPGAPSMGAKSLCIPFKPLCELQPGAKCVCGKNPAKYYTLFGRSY
row,SMILES,IC50
1,"COC(=O)c1cn(CCC[C@H]2NCCC[C@@H]2O)c2cc(Cl)ccc12 [Example 153, methyl 6-chloro-1-(3-((2R,3S)-3-hydroxypiperidin-2-yl)propyl)-1H-indole-3-carboxylate]",100 to 500 nM
2,"COC(=O)c1cn(CCC[C@H]2NCCC[C@@H]2O)c2c(Cl)cccc12 [Example 154, methyl 7-chloro-1-(3-((2R,3S)-3-hydroxypiperidin-2-yl)propyl)-1H-indole-3-carboxylate]",100 to 500 nM
3,"O[C@H]1CCCN[C@@H]1CCCn1nc(C2CC2)c2cc(Cl)ccc21 [Example 155, (2R,3S)-2-(3-(5-chloro-3-cyclopropyl-1H-indazol-1-yl)propyl)piperidin-3-ol]",≥ 500 nM
4,"O[C@H]1CCCN[C@@H]1CCCn1nc(C(F)(F)F)c2cc(Cl)ccc21 [Example 156, (2R,3S)-2-(3-(5-chloro-3-(trifluoromethyl)-1H-indazol-1-yl)propyl)piperidin-3-ol]",≥ 500 nM
5,"O[C@H]1CCCN[C@@H]1CCCn1nc(-c2cnn(C(F)F)c2)c2cc(Cl)ccc21 [Example 157, (2R,3S)-2-(3-(5-chloro-3-(1-(difluoromethyl)-1H-pyrazol-4-yl)-1H-indazol-1-yl)propyl)piperidin-3-ol]",≥ 500 nM
6,"O[C@H]1CCCN[C@@H]1CCCn1nc(-c2cnn(C(F)F)c2)c2ccc(Cl)cc21 [Example 158, (2R,3S)-2-(3-(6-chloro-3-(1-(difluoromethyl)-1H-pyrazol-4-yl)-1H-indazol-1-yl)propyl)piperidin-3-ol]",≥ 500 nM
7,"Cn1c(=O)n(CCC[C@H]2NCCC[C@@H]2O)c2ccccc21 [Example 159, 1-(3-((2R,3S)-3-hydroxypiperidin-2-yl)propyl)-3-methyl-1H-benzo[d]imidazol-2(3H)-one]",≥ 500 nM
8,"O=c1[nH]c2cc(Br)ccc2n1CCC[C@H]1NCCC[C@@H]1O [Example 160, 5-bromo-1-(3-((2R,3S)-3-hydroxypiperidin-2-yl)propyl)-1H-benzo[d]imidazol-2(3H)-one]",≥ 500 nM
9,"O=c1[nH]c2ccc(Br)cc2n1CCC[C@H]1NCCC[C@@H]1O [Example 161, 6-bromo-1-(3-((2R,3S)-3-hydroxypiperidin-2-yl)propyl)-1H-benzo[d]imidazol-2(3H)-one]",≥ 500 nM
10,"Cn1c(=O)c2c(ncn2CCC[C@H]2NCCC[C@@H]2O)n(C)c1=O [Example 162, 7-(3-((2R,3S)-3-hydroxypiperidin-2-yl)propyl)-1,3-dimethyl-1H-purine-2,6(3H,7H)-dione]",≥ 500 nM
11,"Cn1c(=O)[nH]c(=O)c2c1ncn2CCC[C@H]1NCCC[C@@H]1O [Example 163, 7-(3-((2R,3S)-3-hydroxypiperidin-2-yl)propyl)-3-methyl-1H-purine-2,6(3H,7H)-dione]",≥ 500 nM
12,"Cn1c(=O)[nH]c2c(ncn2CCC[C@H]2NCCC[C@@H]2O)c1=O [Example 164, 9-(3-((2R,3S)-3-hydroxypiperidin-2-yl)propyl)-1-methyl-1H-purine-2,6(3H,9H)-dione]",≥ 500 nM
13,"CC(C)Cn1c(=O)n(C)c(=O)c2c1ncn2CCC[C@H]1NCCC[C@@H]1O [Example 165, 7-(3-((2R,3S)-3-hydroxypiperidin-2-yl)propyl)-3-isobutyl-1-methyl-1H-purine-2,6(3H,7H)-dione]",≥ 500 nM
14,"O[C@H]1CCCN[C@@H]1/C=C/Cn1cnc2cc(Cl)c(Cl)cc21 [Example 166, (2R,3S)-2-((E)-3-(5,6-dichloro-1H-benzo[d]imidazol-1-yl)prop-1-enyl)piperidin-3-ol]",100 to 500 nM
15,"Cc1c(F)ccc2c1ncn2C/C=C/[C@H]1NCCC[C@@H]1O [Example 167, (2R,3S)-2-((E)-3-(5-fluoro-4-methyl-1H-benzo[d]imidazol-1-yl)prop-1-enyl)piperidin-3-ol]",100 to 500 nM
16,"Cc1c(Br)ccc2c1ncn2C/C=C/[C@H]1NCCC[C@@H]1O [Example 168, (2R,3S)-2-((E)-3-(5-bromo-4-methyl-1H-benzo[d]imidazol-1-yl)prop-1-enyl)piperidin-3-ol]",100 to 500 nM
